Assay results as given in patent publication US20090325874A1, “Inhibition of inositol 1,4,5-triphosphate receptor calcium channel/cytochrome c interactions and uses thereof” (priority 2008, published 2009).

Legend:
[1] = test system: Jurkat cells co-cultured with SW620 cells; test: Jurkat cell death by propidium iodide staining after co-culture with SW620 cells; format: cell-based, human; design: dose or concentration left out as unconfirmed; conditions: XestC pre-incubation, 24 h co-culture
Procedure: (§1) Jurkat T-lymphoma (clone E6-1) and SW620 colon adenocarcinoma cells were purchased and cultured according to the guidelines of American Type Culture Collection (ATCC, Manassas, Va.). SW620 cells grow as adherent monolayers, whereas Jurkat cells grow in suspension. Jurkat cells were co-cultured with SW620 cells by exchanging the culture medium of SW620 cells (80 percent confluent in a 10 cm dish) with 10 ml Jurkat medium containing 1×10^6 Jurkat cells. Co-cultures were incubated for 24 h, after which cell death or caspase activity was determined in Jurkat cells. Pre-loading 1,2-bis(o-aminophenoxy)ethane-N,N,N′,N′-tetraacetic acid (BAPTA) or B-IP3RCYT into Jurkat cells was performed for 30 min at room temperature. Free BAPTA-AM or B-IP3RCYT was removed by media exchange prior to addition to SW620 cells. XestC was similarly pre-incubated with Jurkat cells prior to co-culturing, and remained in the culture medium for the duration of the co-culture experiment.
Caspase activity and cell death were determined specifically in Jurkat cells by removing the medium containing the Jurkat cells into a fresh tube. […] Adherent SW620 cells remained attached to the culture plate after this rinse as determined by light microscopy. Jurkat cells were pelleted by centrifugation at 1000 g and cell death was determined by propidium iodide staining as described (12). […]

[2] = test system: caspase-3 activation in Jurkat cells co-cultured with SW620 cells; test: Caspase-3 like (DEVDase) activity in Jurkat cells co-cultured with SW620 cells; format: cell-based, human; conditions: for caspase-3 activation in Jurkat cells: 24 h co-culture with SW620; for Jurkat cell (lymphocyte) apoptosis induced by co-culture with SW620 cells: summary statement, co-culture with Fas ligand-expressing SW620 colon cancer cells
Procedure: as §1
Caspase activity and cell death were determined specifically in Jurkat cells by removing the medium containing the Jurkat cells into a fresh tube. An additional rinse with culture medium was used to fully recover the Jurkat cells. Adherent SW620 cells remained attached to the culture plate after this rinse as determined by light microscopy. Jurkat cells were pelleted by centrifugation at 1000 g and cell death was determined by propidium iodide staining as described (12). Fluorometric determination of DEVDase (caspase-3 like) activity was performed on lysates prepared from Jurkat cells as described (12, 15).

Compound	Jurkat cell death induced by co-culture with SW620 cells [1]	caspase-3 activation in Jurkat cells ([2]; XestC 1 to 20 micromolar, pre-incubated and kept in medium)	Jurkat cell (lymphocyte) apoptosis induced by co-culture with SW620 cells [2]	caspase-3 activation in Jurkat cells ([2]; 100 and 500 nM BAPTA-AM pre-loaded 30 min, p<0.05 vs no pre-treatment)
C1CCC[C@H]2CCCN3CC[C@@H](CCCCCC[C@@H]4CCCN5CC[C@@H](CC1)O[C@@H]45)O[C@@H]23 [XestC, Xestospongin C]	potently blocked Jurkat cell death	inhibited caspase-3 activation	dose-dependently inhibited Jurkat cell apoptosis	
O=C(O)CN(CC(=O)O)c1ccccc1OCCOc1ccccc1N(CC(=O)O)CC(=O)O [BAPTA, 1,2-bis(o-aminophenoxy)ethane-N,N,N′,N′-tetraacetic acid]			dose-dependently inhibited Jurkat cell apoptosis	
CC(=O)OCOC(=O)CN(CC(=O)OCOC(C)=O)c1ccccc1OCCOc1ccccc1N(CC(=O)OCOC(C)=O)CC(=O)OCOC(C)=O [BAPTA-AM, aminomethoxy ester form of BAPTA (1,2-bis(o-aminophenoxy)ethane-N,N,N′,N′-tetraacetic acid]				Significant attenuation of caspase-3 activation
